For test [1], the system named is Myzus persicae. The test can be described thus: dual-choice insect feeding assay on tomato leaf disks, aphids. The format is in vivo. Particulars: for effect on feeding at the lowest concentration used: lowest concentration used (113 μg gFW^−1 for cinnamolide). How it is done: (§1) The insects used in this study were the silverleaf whitefly Bemisia tabaci (genotype B) and the green peach aphid Myzus persicae. Whiteflies were reared on tomato (Moneymaker cultivar) in a greenhouse at 26° C., at 60% relative humidity with a photoperiod of 16 h light and 8 h dark. To perform the assays, adult flies of both genders were collected from leaves with an aspirator. They were cold-anesthetized at 7° C. in a 3 cm diameter plastic cylinder covered with Parafilm® for 5 min, before being released into the Petri dish at the start of the dual-choice assay, to ensure they would not fly out before the dishes were sealed. Apterous (without wings) aphid adults were collected from Chinese cabbage (Brassica rapa L. subspecies pekinensis), on which they had been reared at room temperature in ambient light. They were collected in 2 ml test tubes and starved for about 30 min before inoculating them in the dishes. In the dual-choice assays, insects were presented with circular tomato leaf areas coated with either 50% ethanol in water (control) or a solution of cinnamolide in 50% ethanol in water (treatment; two disks with each solution). Cinnamolide was firstly dissolved in 96% ethanol at a concentration of 2 mg mL^−1; subsequently an equal volume of water was added bringing the maximum concentration used to 1 mg mL^−1. Further dilutions were performed adding directly one volume of 50% ethanol in water to one volume of the previous concentration. The three concentrations used were therefore 1 mg mL^−1, 500 μg mL^−1 and 250 μg mL^−1. […] The assays were carried on for either 18 or 24 h and the feeding insects counted at 30 min, 1 h, 2 h, 6 h, and 18 h for whiteflies and at 30 min, 1 h, 2 h, 6 h, and 24 h for aphids. […] To convert data from the concentration in ethanol, expressed as mg mL^−1, into concentration expressed as mg gFW^−1, the value must be multiplied by 15 (the volume in μL applied on each disk) and divided by 0.034 (mass of leaf disk in grams). […]

The test system of test [2] is Bemisia tabaci. The test can be described thus: dual-choice insect feeding assay on tomato leaf disks, whiteflies. Format: in vivo. How it is done:
as §1, with “dishes.” for “dishes. In the dual-choice assays, insects were presented with circular tomato leaf areas coated with either 50% ethanol in water (control) or a solution of cinnamolide in 50% ethanol in water (treatment; two disks with each solution). Cinnamolide was firstly dissolved in 96% ethanol at a concentration of 2 mg mL^−1; subsequently an equal volume of water was added bringing the maximum concentration used to 1 mg mL^−1. Further dilutions were performed adding directly one volume of 50% ethanol in water to one volume of the previous concentration. The three concentrations used were therefore 1 mg mL^−1, 500 μg mL^−1 and 250 μg mL^−1.”

Where [3] appears, read: 450, 225 and 113 μg gFW^−1, 6 h.

In the case of `CC1(C)CCC[C@]2(C)[C@@H](C=O)C(C=O)=CC[C@@H]12` [polygodial, reference compound], the “effect on feeding at the lowest concentration used” value in test [1] is on record as “attractant (phagostimulant) effect”.

Regarding `CC1(C)CCC[C@]2(C)[C@H]3COC(=O)C3=CC[C@@H]12` [cinnamolide], the “Antifeedant Index (Al %), dose response” value in test [1] (setting [3]) and in test [2] (setting [3]) was “increases with the increasing concentrations applied” each time. In test [1], the “effect on feeding at the lowest concentration used” value was “attractant (phagostimulant) effect”. In addition, the “attractant (phagostimulant) effect at the lowest concentration used” value in test [2] (lowest concentration used (113 μg gFW^−1)) was “not seen”.

(Values after patent US20140259223A1, “METHODS FOR PRODUCING CINNAMOLIDE AND/OR DRIMENDIOL” (Keygene N.V., priority 2011, published 2014).)
